In data set [1] the target is T1, TXNRD1 (thioredoxin reductase 1) (Rattus norvegicus, UniProt O89049).
T1 sequence (O89049 1-499): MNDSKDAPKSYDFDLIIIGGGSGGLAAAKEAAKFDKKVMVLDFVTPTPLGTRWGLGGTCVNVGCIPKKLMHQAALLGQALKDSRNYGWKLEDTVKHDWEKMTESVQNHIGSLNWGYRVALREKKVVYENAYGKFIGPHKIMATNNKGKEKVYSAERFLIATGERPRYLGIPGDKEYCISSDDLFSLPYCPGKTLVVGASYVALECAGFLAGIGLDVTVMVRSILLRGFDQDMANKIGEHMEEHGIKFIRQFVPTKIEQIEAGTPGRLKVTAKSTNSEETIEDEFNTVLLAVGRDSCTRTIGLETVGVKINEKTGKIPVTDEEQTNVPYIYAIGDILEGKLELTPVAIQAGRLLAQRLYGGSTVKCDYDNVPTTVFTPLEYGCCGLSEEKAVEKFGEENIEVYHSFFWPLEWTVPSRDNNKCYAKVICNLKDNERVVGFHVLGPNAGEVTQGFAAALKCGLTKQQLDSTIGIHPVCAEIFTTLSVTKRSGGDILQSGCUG
In words: […] min incubation, residual activity by DTNB reduction assay. Format: biochemical. The note with it: 0.25 h, read-out: % residual activity at 0.5 μM.

The target in data set [2] is T1, TXNRD1 (thioredoxin reductase 1). The data set is described as above. Format: biochemical.

`COc1ccc([N+](=O)[O-])c(S(=O)(=O)c2ccc(Cl)cc2)n1` [TRi-1]: in data set [1], the remaining activity at 0.5 µM was ~30%.
Regarding `[NH2][Pt]([NH2])([Cl])[Cl]` [cisplatin], in data set [2], the “60 min incubation, residual activity by DTNB reduction assay” value is “the inhibition of auranofin and cisplatin on TXNRD1 is not significantly affected by guiding bar mutants”.

The values above are taken from publication PMC10840350 (Redox Biology, 2024).
